This assay relates to BDF1 mice, P388 leukemia ip, median survival T/C. Briefly: NCI In Vivo Anticancer Drug Screen. Data for tumor model P388 Leukemia (intraperitoneal) in B6D2F1 (BDF1) mice. The following applies: endpoint: median survival time, higher = longer survival. The method, boiled down: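 Steps: implant the tumour, treat one group with compound and another with vehicle, record survival, then divide treated by control.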

[1] abbreviates: dose: 0.5 mg/kg/injection, schedule: Q04DX003 (ip), vehicle: saline with Tween-80.
[2] abbreviates: dose: 100.0 mg/kg/injection, schedule: Q01DX009 (ip), vehicle: saline with Tween-80.
The mark [3] stands for this setting: dose: 100.0 mg/kg/injection, schedule: Q04DX003 (ip), vehicle: saline with Tween-80.
Where [4] appears, read: dose: 200.0 mg/kg/injection, schedule: Q01DX009 (ip), vehicle: saline with Tween-80.
Where [5] appears, read: dose: 200.0 mg/kg/injection, schedule: Q04DX003 (ip), vehicle: saline with Tween-80.
Setting [6] is: dose: 400.0 mg/kg/injection, schedule: Q01DX009 (ip), vehicle: saline with Tween-80.
[7] abbreviates: dose: 400.0 mg/kg/injection, schedule: Q04DX003 (ip), vehicle: saline with Tween-80.
Setting [8] is: dose: 50.0 mg/kg/injection, schedule: Q04DX003 (ip), vehicle: saline with Tween-80.
Setting [9] is: dose: 100.0 mg/kg/injection, schedule: Q04DX003 (ip), vehicle: Klucel (hydroxypropylcellulose) (HPC).
Where [10] appears, read: dose: 200.0 mg/kg/injection, schedule: Q04DX003 (ip), vehicle: Klucel (hydroxypropylcellulose) (HPC).

The structures appear in SMILES notation. Values joined by “and” are separate entries in the source; they are usually repeats but may differ in a detail not shown here. Equal values may be shown once. Toxic doses and inconclusive results are not listed.

Data on 14 molecules can be found in PubChem BioAssay AID328 (DTP/NCI, 2004).

Take `O=NN(CCCl)C(=O)Nc1cc(NC(=O)N(CCCl)N=O)cc(C(=O)O)c1`: the T/C (dose: 0.03 mg/kg/injection, schedule: Q04DX003 (ip), vehicle: saline with Tween-80) was 116 % of control; the T/C (dose: 0.06 mg/kg/injection, schedule: Q04DX003 (ip), vehicle: saline with Tween-80) was 120 % of control and 122 % of control; the T/C under setting [1] is 150 % of control; the T/C (dose: 0.6 mg/kg/injection, schedule: Q04DX003 (ip), vehicle: saline with Tween-80) is 163 % of control; the T/C (dose: 1.0 mg/kg/injection, schedule: Q04DX003 (ip), vehicle: saline with Tween-80) is 170 % of control; the T/C (dose: 1.8 mg/kg/injection, schedule: Q04DX003 (ip), vehicle: saline with Tween-80) was 195 % of control. Besides, the T/C was 200 % of control (dose: 2.0 mg/kg/injection, schedule: Q04DX003 (ip), vehicle: saline with Tween-80); 215 % of control (dose: 2.3 mg/kg/injection, schedule: Q04DX003 (ip), vehicle: saline with Tween-80); 195 % of control (dose: 2.5 mg/kg/injection, schedule: Q04DX003 (ip), vehicle: saline with Tween-80); 265 % of control (dose: 3.5 mg/kg/injection, schedule: Q04DX003 (ip), vehicle: saline with Tween-80); 186 % of control (dose: 3.7 mg/kg/injection, schedule: Q04DX003 (ip), vehicle: saline with Tween-80); 235 % of control (dose: 5.5 mg/kg/injection, schedule: Q04DX003 (ip), vehicle: saline with Tween-80). The T/C (dose: 6.0 mg/kg/injection, schedule: Q04DX003 (ip), vehicle: saline with Tween-80) is 222 % of control; the T/C (dose: 8.5 mg/kg/injection, schedule: Q04DX003 (ip), vehicle: saline with Tween-80) was 275 % of control; the T/C (dose: 13.0 mg/kg/injection, schedule: Q04DX003 (ip), vehicle: saline with Tween-80) is 250 % of control and 300 % of control; the T/C (dose: 18.0 mg/kg/injection, schedule: Q04DX003 (ip), vehicle: saline with Tween-80) was 272 % of control; the T/C (dose: 20.0 mg/kg/injection, schedule: Q04DX003 (ip), vehicle: saline with Tween-80) is 272 % of control and 300 % of control and 218 % of control; the T/C (dose: 30.0 mg/kg/injection, schedule: Q04DX003 (ip), vehicle: saline with Tween-80) was 235 % of control and 272 % of control. Also, the T/C (dose: 45.0 mg/kg/injection, schedule: Q04DX003 (ip), vehicle: saline with Tween-80) was 95 % of control.
Turning to `O=[N+]([O-])c1ccc(Sc2cccs2)c([N+](=O)[O-])c1`, the T/C by setting is: under setting [2], 100 % of control; under setting [3], 104 % of control; under setting [4], 95 % of control; under setting [5], 95 % of control; under setting [6], 108 % of control; under setting [7], 100 % of control.
With `CC(=O)N/N=C(/C)C(O)(c1ccccc1)c1ccccc1`, the T/C runs as follows: under setting [2], 99 % of control; under setting [3], 103 % of control; under setting [4], 100 % of control; under setting [5], 99 % of control; under setting [6], 99 % of control; under setting [7], 87 % of control.
As to `O=CNc1ccc(O)cc1`, the T/C was 104 % of control under setting [3], 104 % of control under setting [5] and 100 % of control under setting [7].
Take `CC1=CC23C(COC(=O)C24CO4)C(C(=O)O)=CC3C1C` (stereo not given) (tested in a mixture with another compound): the T/C (dose: 0.06 mg/kg/injection, schedule: Q01DX009 (ip), vehicle: Klucel (hydroxypropylcellulose) (HPC)) is 105 % of control; the T/C (dose: 0.13 mg/kg/injection, schedule: Q01DX009 (ip), vehicle: Klucel (hydroxypropylcellulose) (HPC)) is 100 % of control; the T/C (dose: 0.25 mg/kg/injection, schedule: Q01DX009 (ip), vehicle: Klucel (hydroxypropylcellulose) (HPC)) was 105 % of control and 116 % of control.
Take `C(COCC1CO1)OCC1CO1` (stereo not given): the T/C runs as follows: (dose: 25.0 mg/kg/injection, schedule: Q01DX009 (ip), vehicle: saline) 154 % of control and 165 % of control; (dose: 25.0 mg/kg/injection, schedule: Q04DX003 (ip), vehicle: saline) 108 % of control; (dose: 50.0 mg/kg/injection, schedule: Q01DX009 (ip), vehicle: saline) 168 % of control and 185 % of control; under setting [8], 160 % of control; (dose: 100.0 mg/kg/injection, schedule: Q01DX009 (ip), vehicle: saline) 209 % of control; under setting [3], 165 % of control. The T/C (dose: 100.0 mg/kg/injection, schedule: Q04DX003 (ip), vehicle: saline) is 154 % of control.
`CCCCCCCCCCC(=O)N1CCOCC1`: the T/C is, setting by setting: (dose: 25.0 mg/kg/injection, schedule: Q04DX003 (ip), vehicle: saline with Tween-80) 100 % of control; under setting [8], 104 % of control.
Regarding `Cc1ccc(S(=O)(=O)Nc2ccccc2SSc2ccccc2NS(=O)(=O)c2ccc(C)cc2)cc1`, the T/C was 100 % of control under setting [3], 110 % of control under setting [5] and 110 % of control under setting [7].
Take `O=C(O)CCc1c[nH]c2ccc(N(CCCl)CCCl)cc12`: the T/C runs as follows: (dose: 0.04 mg/kg/injection, schedule: Q04DX003 (ip), vehicle: saline with Tween-80) 109 % of control; (dose: 0.08 mg/kg/injection, schedule: Q04DX003 (ip), vehicle: saline with Tween-80) 109 % of control; under setting [1], 158 % of control; (dose: 0.5 mg/kg/injection, schedule: Q04DX003 (ip), vehicle: saline) 231 % of control; (dose: 0.75 mg/kg/injection, schedule: Q04DX003 (ip), vehicle: saline with Tween-80) 154 % of control; (dose: 1.0 mg/kg/injection, schedule: Q04DX003 (ip), vehicle: saline) 90 % of control.
Regarding `OC1CC2CC1C(Cl)C2Cl` (stereo not given), the T/C is, setting by setting: (dose: 50.0 mg/kg/injection, schedule: Q01DX009 (ip), vehicle: saline with Tween-80) 113 % of control; under setting [2], 96 % of control; under setting [4], 98 % of control.
As to `O=C(N=c1cc(-c2ccc(Cl)cc2)ss1)C(Cc1ccccc1)N1C(=O)c2ccccc2C1=O` (stereo not given), the T/C was 101 % of control (dose: 6.25 mg/kg/injection, schedule: Q01DX009 (ip), vehicle: water); 110 % of control (dose: 6.25 mg/kg/injection, schedule: Q04DX003 (ip), vehicle: water); 104 % of control (dose: 12.5 mg/kg/injection, schedule: Q01DX009 (ip), vehicle: water); 100 % of control (dose: 12.5 mg/kg/injection, schedule: Q04DX003 (ip), vehicle: water); 108 % of control (dose: 25.0 mg/kg/injection, schedule: Q01DX009 (ip), vehicle: water); 110 % of control (dose: 25.0 mg/kg/injection, schedule: Q04DX003 (ip), vehicle: water). The T/C (dose: 50.0 mg/kg/injection, schedule: Q01DX009 (ip), vehicle: water) is 104 % of control; the T/C (dose: 50.0 mg/kg/injection, schedule: Q04DX003 (ip), vehicle: water) was 104 % of control; the T/C (dose: 100.0 mg/kg/injection, schedule: Q01DX009 (ip), vehicle: water) is 108 % of control; the T/C (dose: 100.0 mg/kg/injection, schedule: Q04DX003 (ip), vehicle: water) was 107 % of control; the T/C (dose: 200.0 mg/kg/injection, schedule: Q01DX009 (ip), vehicle: water) was 108 % of control.
In the case of `CCSc1nc(=S)cc(C)[nH]1`, the T/C (dose: 100.0 mg/kg/injection, schedule: Q01DX009 (ip), vehicle: Klucel (hydroxypropylcellulose) (HPC)) is 105 % of control; the T/C under setting [9] is 95 % of control; the T/C (dose: 200.0 mg/kg/injection, schedule: Q01DX009 (ip), vehicle: Klucel (hydroxypropylcellulose) (HPC)) is 100 % of control; the T/C under setting [10] was 95 % of control; the T/C (dose: 400.0 mg/kg/injection, schedule: Q01DX009 (ip), vehicle: Klucel (hydroxypropylcellulose) (HPC)) is 105 % of control; the T/C (dose: 400.0 mg/kg/injection, schedule: Q04DX003 (ip), vehicle: Klucel (hydroxypropylcellulose) (HPC)) is 104 % of control.
On to `CNC(=S)NNC(=O)C1CC1`, for which the T/C is 94 % of control (dose: 50.0 mg/kg/injection, schedule: Q01DX005 (ip), vehicle: saline); 107 % of control (dose: 100.0 mg/kg/injection, schedule: Q01DX005 (ip), vehicle: saline); 94 % of control (dose: 200.0 mg/kg/injection, schedule: Q01DX005 (ip), vehicle: saline).
As to `c1ccc2c3nc(nc2c1)CCCCCCCN3`, the T/C runs as follows: under setting [9], 109 % of control; under setting [10], 94 % of control.
